According to patent publication US9493460B2, “Diimide compounds” (UCL BUSINESS PLC, priority 2013, dated 2016):
Where two headings read alike, the source gives them in different places.

How the values were obtained:
RCC4 (renal) cells = test: SRB growth inhibition assay, 96 hr exposure, RCC4; type: cell-based, human
Procedure: (§1) Human cancer cell lines, MCF7 (breast), A549 (lung), Mia-PaCa2, PANC1 and HPAC (pancreatic), RCC4 and 786-0 renal, and the somatic human cell line WI-38 (lung fibroblast) were purchased from ATCC. Cell lines were maintained in appropriate medium supplemented with 10% foetal bovine serum (Invitrogen, UK), 2 mM L-glutamine (Invitrogen, Netherlands), and other components as specified by the suppliers. Cell lines were maintained at 37° C., 5% CO2 and routinely passaged. Drugs were dissolved in DMSO and filtered through 0.22 μm pore-size filter units before addition to cell line appropriate media. Cellular growth inhibition was measured using the sulforhodamine B (SRB) assay in 96 well plates as described previously.^1,2 Fifty percent inhibitory concentrations (IC50) were determined by taking the mean absorbance at 540 nm for each drug concentration expressed as a percentage of the absorbance of untreated control wells.
(§2) The anti-proliferative activity of the group of nine ND derivatives was assessed using the SRB assay following 96 h exposure to 2-fold serial dilutions of each compound (Table 2) in a panel of cancer cell lines together with a normal fibroblast line. […] In contrast the morpholine compounds all show sub-μM anti-proliferative activity in at least some of the cancer cell lines used and the two compounds 3d, 3h with n=3 —(CH2)n— linkers to the morpholine groups, show particularly potent activity in the Mia-PaCa2 and PANC1 pancreatic carcinoma and A549 lung adenocarcinoma cell lines (IC50 values of 10-20 nM).
(§3) Next a series of structural isomers were tested.

786-O (renal) cells = test: SRB growth inhibition assay, 96 hr exposure, 786-O; type: cell-based, human; settings: SRB assay, 96 hr exposure
Procedure: as §1, §2, §3

MCF-7 (breast) cells = test: SRB growth inhibition assay, 96 hr exposure, MCF-7; type: cell-based, human
Procedure: as §1, §2, §3

[1] = test system: MiaPaCa2 (pancreatic) cells; test: SRB growth inhibition assay, MiaPaCa2; type: cell-based, human; settings: SRB assay, 96 hr exposure
Procedure: as §1, §2
Dose-response curves were used to guide the choice of compound concentration and time-points for the array experiments (FIG. 2a). […] To explore this response continuum the transcriptional signature of cells exposed for 24 h to 20 nM, 40 nM, 80 nM concentrations of 3d, or solvent alone as control, was analysed as described in Materials and Methods.
as §3

A549 (lung) cells = test: SRB growth inhibition assay, 96 hr exposure, A549; type: cell-based, human
Procedure: as §1, §2, §3

Panc1 (pancreatic) cells = test: SRB growth inhibition assay, 96 hr exposure, Panc1; type: cell-based, human
Procedure: as §1, §2, §3

[2] = test system: WI38 normal human fibroblast cells; test: SRB growth inhibition assay, 96 hr exposure, WI38; type: cell-based
Procedure: as §1
as §2, with “nM). […]” for “nM).”

[3] = test system: human telomeric G-quadruplex DNA (F21T); test: FRET melting assay, human telomeric quadruplex; type: binding; settings: for change in melting temperature F21T 1 uM: 1 uM ligand; for change in melting temperature F21T 2 uM: 2 uM ligand
From the text: (§4) The ability of the naphthalene diimide compounds to stabilize DNA sequences was investigated using a fluorescence resonance energy transfer (FRET) assay modified to be used as a high-throughput screen in a 96-well format. Several quadruplex sequences were studied (the human telomeric G-quadruplex DNA sequence 5′-FAM-d(GGG[TTAGGG]3)-TAMRA-3′ and the duplex sequence 5′-FAM-dTATAGCTATA-HEG-TATAGCTATA-TAMRA-3′ (HEG linker: [(—CH2—CH2—O—)6])), as well as two overlapping sequences from the HSP90 promoter region (HSP90a and HSP90b):
(§5) The labelled oligonucleotides have attached to them the donor fluorophore FAM: 6-carboxyfluorescein and the acceptor fluorophore TAMRA: 6-carboxytetramethylrhodamine. The FRET probe sequences were diluted from stock to the correct concentration (400 nM) in a 60 mM potassium cacodylate buffer (pH 7.4) and then annealed by heating to 85° C. for 10 min, followed by cooling to room temperature in the heating block. The compound was stored as a 10 mM stock solution in DMSO; final solutions (at 2×concentration) were prepared using 10 mM HCl in the initial 1:10 dilution, after which 60 mM potassium cacodylate buffer (pH 7.4) was used in all subsequent steps. The maximum HCl concentration in the reaction volume (at a ligand concentration of 20 μM) is thus 200 μM, well within the range of the buffer used. Relevant controls were also performed to check for interference with the assay. 96-Well plates (MJ Research, Waltham, Mass.) were prepared by aliquoting 50 μl of the annealed DNA into each well, followed by 50 μl of the compound solutions. Measurements were made on a DNA Engine Opticon (MJ Research) with excitation at 450-495 nm and detection at 515-545 nm. Fluorescence readings were taken at intervals of 0.5° C. in the range 30-100° C., with a constant temperature being maintained for 30 s prior to each reading to ensure a stable value. Final analysis of the data was carried out using a script written in the program Origin 7.0 (OriginLab Corp., Northampton, Mass.). The advanced curve-fitting function in Origin 7.0 was used for calculation of ΔTm values. All determinations were performed in triplicate or better. Esds in ΔTm are ±0.1° C.
The ability of compounds 3a-h to stabilize a human telomeric quadruplex was assessed by a high-throughput FRET (Fluorescence Resonance Energy Transfer) melting technique. […] None of the furan tetrahydrofuran, pyranose or acyclic ether compounds has any effect on quadruplex or duplex stability.
(§6) The T-loop sequence represents duplex DNA.

[4] = test system: HSP90a promoter quadruplex sequence; test: FRET melting assay, Hsp90A quadruplex; type: binding; settings: for change in melting temperature Hsp90A 1 uM: 1 uM ligand; for change in melting temperature Hsp90A 2 uM: 2 uM ligand
From the text: as §4
as §5, with “±0.1° C. […]” for “±0.1° C.”

[5] = test system: HSP90b promoter quadruplex sequence; test: FRET melting assay, Hsp90B quadruplex; type: binding; settings: for change in melting temperature Hsp90B 1 uM: 1 uM ligand; for change in melting temperature Hsp90B 2 uM: 2 uM ligand
From the text: as §4
as §5, with “±0.1° C. […]” for “±0.1° C.”

duplex DNA (T-loop) = test: FRET melting assay, duplex DNA; type: binding; settings: for change in melting temperature Tloop 1 uM: 1 uM ligand; for change in melting temperature Tloop 2 uM: 2 uM ligand
From the text: as §4, §5, §6

Structure (SMILES) | IC50 (RCC4 (renal) cells) | IC50 (786-O (renal) cells) | IC50 (MCF-7 (breast) cells) | IC50 [1] | IC50 (A549 (lung) cells; 96 hr exposure) | IC50 (Panc1 (pancreatic) cells; 96 hr exposure) | IC50 [2] | change in melting temperature F21T 1 uM [3] | change in melting temperature F21T 2 uM [3] | change in melting temperature Hsp90A 1 uM [4] | change in melting temperature Hsp90A 2 uM [4] | change in melting temperature Hsp90B 1 uM [5] | change in melting temperature Hsp90B 2 uM [5] | change in melting temperature Tloop 1 uM (duplex DNA (T-loop)) | change in melting temperature Tloop 2 uM (duplex DNA (T-loop)) | other results
CN1CCN(CCCN2C(=O)c3cc(NCC4CCOCC4)c4c5c(cc(NCC6CCOCC6)c(c35)C2=O)C(=O)N(CCCN2CCN(C)CC2)C4=O)CC1 [SKM052] | 2200 ± 15 nM | 290 ± 2 nM | 510 ± 17 nM | 137 ± 31 nM | 460 ± 10 nM | 1100 ± 130 nM | 2800 ± 230 nM | <2 | 22 | 2 | 27 | 3 | 23 | 0 | 0 | –
CN1CCN(CCN2C(=O)c3cc(NCCCN4CCOCC4)c4c5c(cc(NCCCN6CCOCC6)c(c35)C2=O)C(=O)N(CCN2CCN(C)CC2)C4=O)CC1 [SKM036] | 300 ± 16 nM | 160 ± 21 nM | 21 ± 1 nM | 5 ± 1 nM | 20 ± 1 nM | 5 ± 1 nM | 180 ± 2 nM | 26 | 31 | 33 | 36 | 28 | 32 | 2 | 8 | –
COCCCNc1cc2c3c(c(NCCCOC)cc4c3c1C(=O)N(CCCN1CCN(C)CC1)C4=O)C(=O)N(CCCN1CCN(C)CC1)C2=O [SKM022] | 7600 ± 10 nM | 16100 ± 630 nM | 17500 ± 980 nM | 7050 ± 830 nM | 5750 ± 510 nM | 2500 ± 340 nM | > 25000 nM | <2 | 16 | 22 | 24 | 22 | 26 | 0 | 0 | –
CN1CCN(CCCN2C(=O)c3cc(NCC4CCCO4)c4c5c(cc(NCC6CCCO6)c(c35)C2=O)C(=O)N(CCCN2CCN(C)CC2)C4=O)CC1 (racemic) [SKM038] | 3000 ± 170 nM | 390 ± 20 nM | 560 ± 34 nM | 95 ± 3 nM | 160 ± 2 nM | 1500 ± 170 nM | 2300 ± 80 nM | <2 | 15 | 21 | 23 | 13 | 17 | 0 | 0 | –
CN1CCN(CCCNc2cc3c4c(c(NCCCN5CCN(C)CC5)cc5c4c2C(=O)N(CCCN2CCOCC2)C5=O)C(=O)N(CCCN2CCOCC2)C3=O)CC1 [MM41] | – | – | – | – | – | – | – | 27 | 32 | 33 | 36 | 29 | 33 | 5 | 9 | IC50 (RCC4 (renal) cells; Homo sapiens, RCC4): 560 ± 50 nM; IC50 (786-O (renal) cells; Homo sapiens, 786-0): 320 ± 10 nM; IC50 (MCF-7 (breast) cells; Homo sapiens, MCF7): 70 ± 7 nM; IC50 ([1]; Homo sapiens, MIA PaCa-2): 10 ± 10 nM; IC50 (A549 (lung) cells; Homo sapiens, A549, 96 hr exposure): 19 ± 5 nM; IC50 (Panc1 (pancreatic) cells; Homo sapiens, PANC-1, 96 hr exposure): 3 ± 0.5 nM; IC50 ([2]; Homo sapiens, WI-38): 230 ± 10 nM
